{
  "source": "patent US8952043B2",
  "about": "“Benzoxepin PI3K inhibitor compounds and methods of use” (Genentech, Inc., priority 2009, dated 2015)",
  "key": {"p110 alpha PI3K": {"target": "T1, p110 alpha PI3K (Homo sapiens, UniProt P42336)", "T1 construct": "purchased Upstate Cell Signaling Solutions, Charlottesville, Va", "experiment": "p110α (alpha) PI3K binding assay (fluorescence polarization)", "conditions": "read-out: IC50 (inhibition of PI3K alpha, p110 alpha)", "procedure": "Determination of the PI3 kinase activity of a Formula I compound is possible by a number of direct and indirect detection methods. Certain exemplary compounds described herein were assayed for their p110α (alpha), and other isoform, PI3K binding activity (Example 601) and in vitro activity against tumor cells (Example 602).\nBinding Assays: Initial polarization experiments were performed on an Analyst HT 96-384 (Molecular Devices Corp, Sunnyvale, Calif.). […] After an incubation time of 30 minutes at room temperature, the reactions were stopped by the addition of GRP-1 and PIP3-TAMRA probe (Echelon-Inc., Salt Lake City, Utah.) 100 nM and 5 nM final concentrations respectively. Read with standard cut-off filters for the rhodamine fluorophore (λex=530 nm; λem=590 nm) in 384-well black low volume Proxiplates (PerkinElmer, Wellesley, Mass.) Fluorescence polarization values were plotted as a function of the protein concentration, and the EC50 values were obtained by fitting the data to a 4-parameter equation using KaleidaGraph software (Synergy software, Reading, Pa.). This experiment also establishes the appropriate protein concentration to use in subsequent competition experiments with inhibitors.\nInhibitor IC50 values were determined by addition of the 0.04 mg/mL p110 alpha PI3K (final concentration) combined with PIP2 ([…] final concentration) to wells containing 1:3 serial dilutions of the antagonists in a final concentration of […] ATP (Cell Signaling Technology, Inc., Danvers, Mass.) in the polarization buffer. After an incubation time of 30 minutes at room temperature, the reactions were stopped by the addition of GRP-1 and PIP3-TAMRA probe (Echelon-Inc., Salt Lake City, Utah.) 100 nM and 5 nM final concentrations respectively. Read with standard cut-off filters for the rhodamine fluorophore (λex=530 nm; λem=590 nm) in 384-well black low volume proxi plates (PerkinElmer, Wellesley, Mass.) Fluorescence polarization values were plotted as a function of the antagonist concentration, and the IC50 values were obtained by fitting the data to a 4-parameter equation in Assay Explorer software (MDL, San Ramon, Calif.).\nAlternatively, inhibition of PI3K was determined in a radiometric assay using purified, recombinant enzyme and ATP at a concentration of 1 uM. The Formula I compound was serially diluted in 100% DMSO. The kinase reaction was incubated for 1 hr at room temperature, and the reaction was terminated by the addition of PBS. IC50 values were subsequently determined using sigmoidal dose-response curve fit (variable slope)."}, "EVSA-T": {"test_system": "EVSA-T", "experiment": "CellTiter-Glo cell proliferation assay, EVSA-T", "assay_type": "cell-based", "conditions": "Homo sapiens, Breast, mutation status PTEN", "procedure": "(§1) The in vitro potency of Formula I exemplary compounds was measured by the cell proliferation assay, CellTiter-Glo® Luminescent Cell Viability Assay, commercially available from Promega Corp., Madison, Wis. (Example 602). This homogeneous assay method is based on the recombinant expression of Coleoptera luciferase (U.S. Pat. Nos. 5,583,024; 5,674,713; 5,700,670) and determines the number of viable cells in culture based on quantitation of the ATP present, an indicator of metabolically active cells (Crouch et al (1993) J. Immunol. Meth. 160:81-88; U.S. Pat. No. 6,602,677). The CellTiter-Glo® Assay was conducted in 96 or 384 well format, making it amenable to automated high-throughput screening (HTS) (Cree et al (1995) AntiCancer Drugs 6:398-404). The homogeneous assay procedure involves adding the single reagent (CellTiter-Glo® Reagent) directly to cells cultured in serum-supplemented medium. Cell washing, removal of medium and multiple pipetting steps are not required. The system detects as few as 15 cells/well in a 384-well format in 10 minutes after adding reagent and mixing.\n(§2) Efficacy of Formula I compounds were measured by a cell proliferation assay employing the following protocol (Promega Corp. Technical Bulletin TB288; Mendoza et al (2002) Cancer Res. 62:5485-5488):\n(§3) 1. An aliquot of 100 μl of cell culture containing about 10^4 cells (PC3, Detroit562, or MDAMB361.1) in medium was deposited in each well of a 384-well, opaque-walled plate.\n(§4) 2. Control wells were prepared containing medium and without cells.\n(§5) 3. The compound was added to the experimental wells and incubated for 3-5 days.\n(§6) 4. The plates were equilibrated to room temperature for approximately 30 minutes.\n(§7) 5. A volume of CellTiter-Glo Reagent equal to the volume of cell culture medium present in each well was added.\n(§8) 6. The contents were mixed for 2 minutes on an orbital shaker to induce cell lysis.\n(§9) 7. The plate was incubated at room temperature for 10 minutes to stabilize the luminescence signal.\n(§10) 8. Luminescence was recorded and reported in graphs as RLU=relative luminescence units.\n(§11) Alternatively, cells were seeded at optimal density in a 96 well plate and incubated for 4 days in the presence of test compound. Alamar Blue™ was subsequently added to the assay medium, and cells were incubated for 6 hr before reading at 544 nm excitation, 590 nm emission. EC50 values were calculated using a sigmoidal dose response curve fit. […] It is commonly used as a measure of drug potency.\n(§12) The anti-proliferative effects of Formula I exemplary compounds were measured by the CellTiter-Glo® Assay against various tumor cell lines, including the following: […]"}, "AU565": {"test_system": "AU565", "experiment": "CellTiter-Glo cell proliferation assay, AU565", "assay_type": "cell-based", "conditions": "Homo sapiens, Breast, mutation status WT", "procedure": "as §1, §2, §3, §4, §5, §6, §7, §8, §9, §10, §11, §12"}, "MDA-MB-361.1": {"test_system": "MDA-MB-361.1", "experiment": "CellTiter-Glo cell proliferation assay, MDA-MB-361.1", "assay_type": "cell-based", "conditions": "Breast, mutation status PI3K", "procedure": "as §1, §2, §3, §4, §5, §6, §7, §8, §9, §10, §11, §12"}, "KM12": {"test_system": "KM12", "experiment": "CellTiter-Glo cell proliferation assay, KM12", "assay_type": "cell-based", "conditions": "Homo sapiens, Colon, mutation status PTEN", "procedure": "(§13) The in vitro potency of Formula I exemplary compounds was measured by the cell proliferation assay, CellTiter-Glo® Luminescent Cell Viability Assay, commercially available from Promega Corp., Madison, Wis. (Example 602). This homogeneous assay method is based on the recombinant expression of Coleoptera luciferase (U.S. Pat. Nos. 5,583,024; 5,674,713; 5,700,670) and determines the number of viable cells in culture based on quantitation of the ATP present, an indicator of metabolically active cells (Crouch et al (1993) J. Immunol. Meth. 160:81-88; U.S. Pat. No. 6,602,677). […]\n(§14) Efficacy of Formula I compounds were measured by a cell proliferation assay employing the following protocol (Promega Corp. Technical Bulletin TB288; Mendoza et al (2002) Cancer Res. 62:5485-5488): […]\nas §9, §10\n(§15) Alternatively, cells were seeded at optimal density in a 96 well plate and incubated for 4 days in the presence of test compound. Alamar Blue™ was subsequently added to the assay medium, and cells were incubated for 6 hr before reading at 544 nm excitation, 590 nm emission. EC50 values were calculated using a sigmoidal dose response curve fit. […]"}, "MDST8": {"test_system": "MDST8", "experiment": "CellTiter-Glo cell proliferation assay, MDST8", "assay_type": "cell-based", "conditions": "Colon, mutation status PTEN", "procedure": "as §13, §14, §9, §10, §15"}, "H520": {"test_system": "H520", "experiment": "CellTiter-Glo cell proliferation assay, H520", "assay_type": "cell-based", "conditions": "Homo sapiens, NCI-H520, Lung(NSCLC), mutation status PTEN", "procedure": "as §13, §14, §9, §10, §15"}, "KPL4": {"test_system": "KPL4", "experiment": "CellTiter-Glo cell proliferation assay, KPL4", "assay_type": "cell-based", "conditions": "Breast, mutation status PI3K", "procedure": "as §1, §2\n1. […]\nas §9, §10, §15, §12"}, "T47D": {"test_system": "T47D", "experiment": "CellTiter-Glo cell proliferation assay, T47D", "assay_type": "cell-based", "conditions": "Homo sapiens, Breast, mutation status PI3K", "procedure": "as §1, §2\n1. […]\nas §9, §10, §15, §12"}, "H2122": {"test_system": "H2122", "experiment": "CellTiter-Glo cell proliferation assay, H2122", "assay_type": "cell-based", "conditions": "Homo sapiens, NCI-H2122, Lung(NSCLC), mutation status K-RAS", "procedure": "as §1, §2\n1. […]\nas §9, §10, §15, §12"}, "HCC1954": {"test_system": "HCC1954", "experiment": "CellTiter-Glo cell proliferation assay, HCC1954", "assay_type": "cell-based", "conditions": "Homo sapiens, Breast, mutation status PI3K", "procedure": "as §1, §2\n1. […]\nas §9, §10, §15, §12"}, "U87MG": {"test_system": "U87MG", "experiment": "CellTiter-Glo cell proliferation assay, U87MG", "assay_type": "cell-based", "conditions": "Homo sapiens, U-87 MG, Glioma, mutation status PTEN", "procedure": "as §13, §14, §9, §10, §15"}, "PC3": {"test_system": "PC3", "experiment": "CellTiter-Glo cell proliferation assay, PC3", "assay_type": "cell-based", "conditions": "Homo sapiens, PC-3, Prostate, mutation status PTEN", "procedure": "as §1, §2\n1. […]\nas §9, §10, §15, §12"}, "MFM223": {"test_system": "MFM223", "experiment": "CellTiter-Glo cell proliferation assay, MFM223", "assay_type": "cell-based", "conditions": "Homo sapiens, MFM-223, Breast, mutation status PI3K", "procedure": "as §1, §2\n1. […]\nas §9, §10, §15, §12"}, "BT474": {"test_system": "BT474", "experiment": "CellTiter-Glo cell proliferation assay, BT474", "assay_type": "cell-based", "conditions": "Homo sapiens, BT-474, Breast, mutation status PI3K(amped)", "procedure": "as §1, §2\n1. […]\nas §9, §10, §15, §12"}},
  "data": [
    {"smiles": "CN(CCC#N)C(=O)c1nc2c(s1)CCOc1cc(-c3cn[nH]c3)ccc1-2", "note": "[compound 153, 8-(1H-Pyrazol-4-yl)-4,5-dihydro-6-oxa-3-thia-1-aza-benzo[e]azulene-2-carboxylic acid (2-cyano-ethyl)-methyl-amide]", "values": [
      {"measurement": "IC50", "setting": "p110 alpha PI3K", "result": 58, "unit": "nM"}
    ]},
    {"smiles": "CNC(=O)c1ccc2c(c1)OCCc1cc(-c3nc(N)nn3-c3ccc(F)cc3F)sc1-2", "note": "[compound 127, 2-(3-amino-1-(2,4-difluorophenyl)-1H-1,2,4-triazol-5-yl)-N-methyl-4,5-dihydrobenzo[b]thieno[2,3-d]oxepine-8-carboxamide]", "values": [
      {"measurement": "EC50", "setting": "EVSA-T", "result": 147, "unit": "nM"},
      {"measurement": "EC50", "setting": "AU565", "result": 37, "unit": "nM"},
      {"measurement": "IC50", "setting": "p110 alpha PI3K", "result": 0.05, "unit": "nM"},
      {"measurement": "EC50", "setting": "MDA-MB-361.1", "result": 60, "unit": "nM"}
    ]},
    {"smiles": "CC(C)N(CCO)C(=O)c1nc2c(s1)CCOc1cc(-c3cn[nH]c3)ccc1-2", "note": "[compound 103, 8-(1H-Pyrazol-4-yl)-4,5-dihydro-6-oxa-3-thia-1-aza-benzo[e]azulene-2-carboxylic acid (2-hydroxy-ethyl)-isopropyl-amide]", "values": [
      {"measurement": "IC50", "setting": "p110 alpha PI3K", "result": 1.8, "unit": "nM"}
    ]},
    {"smiles": "CC(C)N(C)C(=O)c1nc2c(s1)CCOc1cc(-c3cn[nH]c3)ccc1-2", "note": "[compound 102, 8-(1H-Pyrazol-4-yl)-4,5-dihydro-6-oxa-3-thia-1-aza-benzo[e]azulene-2-carboxylic acid isopropyl-methyl-amide]", "values": [
      {"measurement": "IC50", "setting": "p110 alpha PI3K", "result": 5.1, "unit": "nM"}
    ]},
    {"smiles": "CC(C)n1ncnc1-c1nc2c(s1)CCOc1cc(C3CCNCC3)ccc1-2", "note": "[compound 375, 2-(2-isopropyl-2H-[1,2,4]triazol-3-yl)-8-piperidin-4-yl-4,5-dihydro-6-oxa-3-thia-1-aza-benzo[e]azulene]", "values": [
      {"measurement": "EC50", "setting": "KM12", "result": 1750, "unit": "nM"},
      {"measurement": "EC50", "setting": "MDST8", "result": 1740, "unit": "nM"},
      {"measurement": "EC50", "setting": "H520", "result": 226, "unit": "nM"},
      {"measurement": "EC50", "setting": "EVSA-T", "result": 225, "unit": "nM"},
      {"measurement": "EC50", "setting": "KPL4", "result": 151, "unit": "nM"},
      {"measurement": "EC50", "setting": "AU565", "result": 241, "unit": "nM"},
      {"measurement": "EC50", "setting": "T47D", "result": 145, "unit": "nM"},
      {"measurement": "EC50", "setting": "H2122", "result": 1170, "unit": "nM"},
      {"measurement": "EC50", "setting": "HCC1954", "result": 348, "unit": "nM"},
      {"measurement": "EC50", "setting": "U87MG", "result": 858, "unit": "nM"},
      {"measurement": "EC50", "setting": "PC3", "result": 145, "unit": "nM"},
      {"measurement": "EC50", "setting": "MFM223", "result": 739, "unit": "nM"},
      {"measurement": "EC50", "setting": "MDA-MB-361.1", "result": 1090, "unit": "nM"},
      {"measurement": "EC50", "setting": "BT474", "result": 428, "unit": "nM"}
    ]},
    {"smiles": "Nc1nc(-c2cc3c(s2)-c2ccc(C(=O)NCCO)cc2OCC3)n(-c2ccc(F)cc2F)n1", "note": "[compound 151, 2-(3-amino-1-(2,4-difluorophenyl)-1H-1,2,4-triazol-5-yl)-N-(2-hydroxyethyl)-4,5-dihydrobenzo[b]thieno[2,3-d]oxepine-8-carboxamide]", "values": [
      {"measurement": "IC50", "setting": "p110 alpha PI3K", "result": 0.2, "unit": "nM"}
    ]}
  ]
}
